SMILES strings stand for the structures. A value given as a limit tells only on which side of the number the result lay.

The values that follow come from patent US7888123B2 (priority 2005, dated 2011).

The test system of test [1] is Schizochytrium sp. CB15-5. The note with it: medium containing 10 to 30 μg/ml Zeocin; 28° C., 72 hours in the shade. How it is done: (3) Test for Zeocin Sensitivity of CB15-5 Strain
The precultured microorganism cells were diluted 1000-fold, and 100 μL thereof was seeded onto GYP plate media having Zeocin concentration ranging from 0 to 50 μg/ml, and incubated at 28° C. for 72 hours in the shade. The number and size of the resulting colonies were measured.

Test [2] concerns transformant having ef1α promoter. The note with it: GPY plate media, 28° C. Here is the method: (§1) (22) Test for Zeocin Sensitivity of Transformant
(§2) The precultured microorganism cells were diluted to 20 cells/μl, and 1 μl thereof was spotted onto GPY plate media having Zeocin concentration ranging from 0 to 6000 μg/ml and incubated in the shade at 28° C. for 60 hours.

Test [3] deals with transformant having gapdh promoter. The note with it: GPY plate media, 28° C. How it is done: as §1, §2
Test [4] relates to wild type (CB15-5 strain). The note with it: GPY plate media, 28° C. How it is done: as §1, §2
Test [5] has as its system transformant having actin promoter. The note with it: GPY plate media, 28° C.

On to `Cc1c(N)nc([C@H](CC(N)=O)NC[C@H](N)C(N)=O)nc1C(=O)N[C@H](C(=O)N[C@H](C)[C@@H](O)[C@H](C)C(=O)N[C@H](C(=O)NCCC1=N[C@@H](c2nc(C(=O)NCCCCN=C(N)N)cs2)CS1)[C@@H](C)O)[C@@H](O[C@@H]1O[C@@H](CO)[C@@H](O)[C@H](O)[C@@H]1O[C@H]1O[C@H](CO)[C@@H](O)[C@H](OC(N)=O)[C@@H]1O)c1cnc[nH]1` [Zeocin], for which the “number and size of the colonies” value in test [1] was “concentration-dependent decrease”. Moreover, the figures for the “Zeocin concentration up to which viable” value in test [2], in test [3] and in test [5] were not above 6000 µg/mL, not above 2000 µg/mL and “up to 4000 μg/ml”, respectively. The “Zeocin concentration in which completely nonviable” value in test [4] is 20 µg/mL.
